From US8168779B2, “Anhydrous crystalline β-maltose, its preparation and uses” (priority 2006, dated 2012)

Assays:
[1] = mercury filling method; for Intrusion volume: initial pressure 15 kPa; for Median pore diameter / Mode pore diameter: control values originate from space between crystal particles, not pores
[2] = Deionized water-solidifying test (base for solidifying moisture-containing compositions); assay type: physicochemical; conditions: 25° C.; for (Appearance) / Condition: after 20 hours from the dissolution; for Time of solidification completed / Time of solidification started: monitored for 2 hours
Text: After completing the dissolution, each test solution was further stirred for four minutes and then the stirring was stopped. Successively, each test solution was left to stand and a solidification of the test solution by the crystallization of hydrous crystalline maltose was monitored macroscopically for two hours. In the cases of the solidified samples, the time of starting the crystallization and that of completing the solidification were checked. (However, the test solution dissolving 18.8 g of crystal was stopped stirring at three minutes after the dissolution because the crystallization of hydrous crystalline maltose was started immediately.) After monitoring macroscopically for two hours, each vessel containing any one of the sample solutions was closed and further left to stand for 18 hours. Then, the condition (appearance) of the test samples after 20 hours from the dissolution was monitored macroscopically and evaluated by the following three phases: (1) clear solution; (2) clouded solution; and (3) solidified. The samples prepared by using 10.0 g, 11.5 g, 13.3 g, or 18.8 g of the anhydrous crystalline α-maltose used in Example 2, as a substitute of the test samples, were treated by the same procedure as controls. The test was carried out in a room where a temperature was kept at 25° C. The results of each sample after 2 and 20 hours are shown in Table 5 and FIG. 13, and Table 6 and FIG. 14, respectively.

[3] = Hygroscopicity test (moisture content under controlled relative humidity); assay type: physicochemical; conditions: 27° C.
Experimental: Moisture contents of the samples at respective periods were measured based on the change of weight from the start of the test. The moisture contents of the samples at the start of the test were measured by Karl Fischer's method.

[4] = Specific surface area by nitrogen adsorption isotherms (BET); assay type: physicochemical; conditions: BET method, listed as anhydrous crystalline β-maltose of Control 3
Experimental: About 3 g of the anhydrous crystalline β-maltose, obtained in Example 1, was dried in the apparatus under a reduced pressure at about 40° C. for about 15 hours as a pretreatment, and then used for the measurement of specific surface area by the nitrogen adsorption isotherms. The result was analyzed by conventional BET (Brunnauer, Emmet, and Teller) method.

[5] = 8.2 g dissolved in 10 g deionized water (45.0%)
[6] = 8.2 g dissolved in 10 g deionized water (calc. conc. 45.0%)
[7] = 10.0 g dissolved in 10 g deionized water (50.0%)
[8] = 10.0 g dissolved in 10 g deionized water (calc. conc. 50.0%)
[9] = 11.5 g dissolved in 10 g deionized water (53.5%)
[10] = 11.5 g dissolved in 10 g deionized water (calc. conc. 53.5%)
[11] = 13.3 g dissolved in 10 g deionized water (calc. conc. 57.0%)
[12] = 18.8 g dissolved in 10 g deionized water (calc. conc. 65.0%)

OC[C@H]1O[C@H](O[C@H]2[C@H](O)[C@@H](O)[C@H](O)O[C@@H]2CO)[C@H](O)[C@@H](O)[C@@H]1O [Anhydrous crystalline β-maltose converted by the ethanol tre]
Intrusion volume [1]: 1.05 mL/g
Median pore diameter [1]: 1.26 μm
Mode pore diameter [1]: 1.44 μm
(Appearance) [2, 5]: (Clear solution)
Condition [2, 5]: Not solidified
Time of solidification completed [2, 6]: Not solidified
Time of solidification started [2, 6]: Not solidified
(Appearance) [2, 7]: (Clear solution)
Condition [2, 7]: Not solidified
Time of solidification completed [2, 8]: Not solidified
Time of solidification started [2, 8]: Not solidified
(Appearance) [2, 9]: (Clouded solution)
Condition [2, 9]: Not solidified
Time of solidification completed [2, 10]: Not solidified
Time of solidification started [2, 10]: Not solidified
Condition ([2]; 13.3 g dissolved in 10 g deionized water (57.0%)): Solidified
Time of solidification completed [2, 11]: 8.0 min
Time of solidification started [2, 11]: 6.0 min
Condition ([2]; 18.8 g dissolved in 10 g deionized water (65.0%)): Solidified
Time of solidification completed [2, 12]: 3.5 min
Time of solidification started [2, 12]: 3.0 min

OCC1OC(OC2C(CO)OC(O)C(O)C2O)C(O)C(O)C1O (stereo not drawn) [HC β-Mal (Control 1), Hydrous crystalline β-maltose]
Moisture content of samples ([3]; RH 47% (lithium nitrate), 0 hour (start, Karl Fischer)): 5.24 %, w/w
Moisture content of samples ([3]; RH 47% (lithium nitrate), 2 hours): 5.23 %, w/w
Moisture content of samples ([3]; RH 47% (lithium nitrate), 4 hours): 5.23 %, w/w
Moisture content of samples ([3]; RH 47% (lithium nitrate), 24 hours): 5.23 %, w/w
Moisture content of samples ([3]; RH 47% (lithium nitrate), 96 hours): 5.26 %, w/w
Moisture content of samples ([3]; RH 47% (lithium nitrate), 192 hours): 5.23 %, w/w
Moisture content of samples ([3]; RH 58% (sodium bromide), 0 hour (start, Karl Fischer)): 5.24 %, w/w
Moisture content of samples ([3]; RH 58% (sodium bromide), 2 hours): 5.22 %, w/w
Moisture content of samples ([3]; RH 58% (sodium bromide), 4 hours): 5.25 %, w/w
Moisture content of samples ([3]; RH 58% (sodium bromide), 6 hours): 5.26 %, w/w
Moisture content of samples ([3]; RH 58% (sodium bromide), 8 hours): 5.25 %, w/w
Moisture content of samples ([3]; RH 58% (sodium bromide), 24 hours): 5.25 %, w/w
Moisture content of samples ([3]; RH 58% (sodium bromide), 96 hours): 5.28 %, w/w
Moisture content of samples ([3]; RH 58% (sodium bromide), 192 hours): 5.26 %, w/w
Moisture content of samples ([3]; RH 75% (sodium chloride), 0 hour (start, Karl Fischer)): 5.24 %, w/w
Moisture content of samples ([3]; RH 75% (sodium chloride), 2 hours): 5.21 %, w/w
Moisture content of samples ([3]; RH 75% (sodium chloride), 4 hours): 5.25 %, w/w
Moisture content of samples ([3]; RH 75% (sodium chloride), 6 hours): 5.25 %, w/w
Moisture content of samples ([3]; RH 75% (sodium chloride), 8 hours): 5.25 %, w/w
Moisture content of samples ([3]; RH 75% (sodium chloride), 24 hours): 5.25 %, w/w
Moisture content of samples ([3]; RH 75% (sodium chloride), 96 hours): 5.29 %, w/w
Moisture content of samples ([3]; RH 75% (sodium chloride), 192 hours): 5.23 %, w/w
Moisture content of samples ([3]; RH 90% (barium chloride), 0 hour (start, Karl Fischer)): 5.24 %, w/w
Moisture content of samples ([3]; RH 90% (barium chloride), 2 hours): 5.26 %, w/w
Moisture content of samples ([3]; RH 90% (barium chloride), 4 hours): 5.27 %, w/w
Moisture content of samples ([3]; RH 90% (barium chloride), 6 hours): 5.26 %, w/w
Moisture content of samples ([3]; RH 90% (barium chloride), 8 hours): 5.26 %, w/w
Moisture content of samples ([3]; RH 90% (barium chloride), 24 hours): 5.24 %, w/w
Moisture content of samples ([3]; RH 90% (barium chloride), 96 hours): 5.61 %, w/w
Moisture content of samples ([3]; RH 90% (barium chloride), 192 hours): 5.36 %, w/w

OC[C@H]1O[C@H](O[C@H]2[C@H](O)[C@@H](O)[C@H](O)O[C@@H]2CO)[C@H](O)[C@@H](O)[C@@H]1O [Anhydrous crystalline β-maltose]
Moisture content of samples ([3]; RH 47% (lithium nitrate), 0 hour (start, Karl Fischer), listed as AC β-Mal (Control 3)): 0.24 %, w/w
Moisture content of samples ([3]; RH 47% (lithium nitrate), 2 hours, listed as AC β-Mal (Control 3)): 0.32 %, w/w
Moisture content of samples ([3]; RH 47% (lithium nitrate), 4 hours, listed as AC β-Mal (Control 3)): 0.47 %, w/w
Moisture content of samples ([3]; RH 47% (lithium nitrate), 24 hours, listed as AC β-Mal (Control 3)): 0.54 %, w/w
Moisture content of samples ([3]; RH 47% (lithium nitrate), 96 hours, listed as AC β-Mal (Control 3)): 0.61 %, w/w
Moisture content of samples ([3]; RH 47% (lithium nitrate), 192 hours, listed as AC β-Mal (Control 3)): 0.47 %, w/w
Moisture content of samples ([3]; RH 58% (sodium bromide), 0 hour (start, Karl Fischer), listed as AC β-Mal (Control 3)): 0.24 %, w/w
Moisture content of samples ([3]; RH 58% (sodium bromide), 2 hours, listed as AC β-Mal (Control 3)): 4.68 %, w/w
Moisture content of samples ([3]; RH 58% (sodium bromide), 4 hours, listed as AC β-Mal (Control 3)): 6.92 %, w/w
Moisture content of samples ([3]; RH 58% (sodium bromide), 6 hours, listed as AC β-Mal (Control 3)): 6.71 %, w/w
Moisture content of samples ([3]; RH 58% (sodium bromide), 8 hours, listed as AC β-Mal (Control 3)): 6.28 %, w/w
Moisture content of samples ([3]; RH 58% (sodium bromide), 24 hours, listed as AC β-Mal (Control 3)): 5.63 %, w/w
Moisture content of samples ([3]; RH 58% (sodium bromide), 96 hours, listed as AC β-Mal (Control 3)): 5.48 %, w/w
Moisture content of samples ([3]; RH 58% (sodium bromide), 192 hours, listed as AC β-Mal (Control 3)): 5.42 %, w/w
Moisture content of samples ([3]; RH 75% (sodium chloride), 0 hour (start, Karl Fischer), listed as AC β-Mal (Control 3)): 0.24 %, w/w
Moisture content of samples ([3]; RH 75% (sodium chloride), 2 hours, listed as AC β-Mal (Control 3)): 6.86 %, w/w
Moisture content of samples ([3]; RH 75% (sodium chloride), 4 hours, listed as AC β-Mal (Control 3)): 6.76 %, w/w
Moisture content of samples ([3]; RH 75% (sodium chloride), 6 hours, listed as AC β-Mal (Control 3)): 6.47 %, w/w
Moisture content of samples ([3]; RH 75% (sodium chloride), 8 hours, listed as AC β-Mal (Control 3)): 6.34 %, w/w
Moisture content of samples ([3]; RH 75% (sodium chloride), 24 hours, listed as AC β-Mal (Control 3)): 6.16 %, w/w
Moisture content of samples ([3]; RH 75% (sodium chloride), 96 hours, listed as AC β-Mal (Control 3)): 6.01 %, w/w
Moisture content of samples ([3]; RH 75% (sodium chloride), 192 hours, listed as AC β-Mal (Control 3)): 5.93 %, w/w
Moisture content of samples ([3]; RH 90% (barium chloride), 0 hour (start, Karl Fischer), listed as AC β-Mal (Control 3)): 0.24 %, w/w
Moisture content of samples ([3]; RH 90% (barium chloride), 2 hours, listed as AC β-Mal (Control 3)): 7.28 %, w/w
Moisture content of samples ([3]; RH 90% (barium chloride), 4 hours, listed as AC β-Mal (Control 3)): 7.66 %, w/w
Moisture content of samples ([3]; RH 90% (barium chloride), 6 hours, listed as AC β-Mal (Control 3)): 7.45 %, w/w
Moisture content of samples ([3]; RH 90% (barium chloride), 8 hours, listed as AC β-Mal (Control 3)): 7.45 %, w/w
Moisture content of samples ([3]; RH 90% (barium chloride), 24 hours, listed as AC β-Mal (Control 3)): 8.46 %, w/w
Moisture content of samples ([3]; RH 90% (barium chloride), 96 hours, listed as AC β-Mal (Control 3)): 10.20 %, w/w
Moisture content of samples ([3]; RH 90% (barium chloride), 192 hours, listed as AC β-Mal (Control 3)): 9.12 %, w/w
Specific surface area [4]: 0.82 m^2/g

OC[C@H]1O[C@H](O[C@H]2[C@H](O)[C@@H](O)[C@H](O)O[C@@H]2CO)[C@H](O)[C@@H](O)[C@@H]1O [Anhydrous crystalline β-maltose (Control 3)]
Intrusion volume [1]: (No pore)
Median pore diameter [1]: 14.70 μm
Mode pore diameter [1]: 25.70 μm
